Measurements as given in patent publication EP0808325B1, “[…] […] SERIES FOR […] GABA RECEPTOR” (priority 1994, dated 1996).

How the values were obtained:
mice [1] = experiment: loss-of-righting reflex (anesthetic activity); assay type: in vivo; design: unit not given here; details: iv
Method: The compounds of and used in the invention can also be used for anesthetic indications at high doses. However, the preferred route of administration to induce anesthesia is intravenous (i.v.) administration. In animals, a drug's anesthetic properties is measured by the drug's ability to produce a loss-of-righting reflex. The loss-of-righting reflex is defined as the inability of an animal to right itself within 30 seconds when placed on its back. Mice were administered drug i.v. in the lateral tail vein. Following administration, mice were placed on their backs and observed for loss-of-righting reflex.

GR complex = experiment: modulation of [35S]TBPS binding in rat cerebral cortex P2 homogenate; design: species or system Sprague-Dawley rats; IMAX: unit not given here; details: for IC50: concentration of compounds to inhibit 50% of control [35S]TBPS binding, 2 nM [35S]TBPS, 25°C, 90 minutes, no unit printed; for IMAX: maximum inhibition of [35S]TBPS binding, I* = Inactive
In short: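 Rat (male Sprague-Dawley) cortical P2 homogenate, 0.5 mg protein, in 50 mM Na/K phosphate pH 7.4, 200 mM NaCl, incubated 90 min at 25° C with 2 nM [35S]TBPS plus GABA and (+)bicuculline, compounds added in DMSO. Filter-bound radioactivity counted; nonspecific binding defined with […].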

[2] = test system: metrazol induced convulsions; experiment: animal or person; assay type: in vivo, mice; details: IP, 10 mg/kg
mice [3] = experiment: elevated plus-maze; assay type: in vivo, N.I.H. Swiss-Webster mice; details: IP, 50% hpbcd
From the text: The theoretical basis for the elevated plus-maze test is similar to that of the light/dark transition test. As described by Pellow et al., J. Neurosci. Meth 14:149-167 (1985), the elevated plus-maze apparatus is designed to utilize the mice's natural aversion to open spaces. The apparatus consists of two open-arms and two enclosed-arms. The elevated plus-maze test allows for two measures of anxiety, the number of entries into the open-arms and the time spent on the open-arms, both expressed as a percentage of the total number of entries and time spent in/on both the open-arms and enclosed-arms.
Male N.I.H. Swiss-Webster mice (Harlan, Indianapolis, IN) weighing 15-20 g were housed four per cage in polyethylene cages with sawdust bedding. The colony room was environmentally controlled (22°C) with a 12 hr light/dark cycle (0600-1800 hr). Food and water were available ad libitum, except during testing. The experiments were run from 0700-1500 hr and groups were counterbalanced for time of day effects. Mice were only administered drug or vehicle once.
The method used was previously described (Lister, Psychopharmacol. 92:180-185 (1987)). The apparatus included two open arms perpendicular to two enclosed arms elevated 50 cm from the floor. Each arm was 50 cm long and the walls of the enclosed arms were 40 cm tall. The maze was made completely of black plexiglass. Incandescent 200 W light bulbs were above each of the open arms to produce a strong contrast between the open arms and the enclosed arms.
Ten minutes after an injection, the N.I.H. Swiss-Webster mice were placed in the center of the plus-maze facing an open arm. During the 5 min test period, the number of entries onto the open arms and the enclosed arms, and the time spent in the open arms and enclosed arms were measured. All four paws had to be within an arm for the dependent variable to be measured. Therefore, the time spent in the center of the maze is not counted, so the total time spent in the open arms and the enclosed arms may not equal 5 min. […]

rats = experiment: Geller-Seifter conflict test; assay type: in vivo, Sprague-Dawley rats; details: 50% hpbcd
From the text: This animal model of human anxiety utilizes a conditioned state of conflict in rats to ascertain the anxiolytic properties of drugs. Rats are conditioned to bar press for positive reinforcement under two schedules of behavior (Geller and Seifter, Psychopharmacologia 1:482-492 (1960)). The first includes bar pressing under a […] schedule without punishment. The second component is a fixed ratio schedule with each bar press resulting in a positive reinforcement and a punishment. The punished component produces a state of conflict within the animal. […] An anxiolytic response would increase the punished responding without affecting the unpunished responding.
Male albino Sprague-Dawley rats (Charles River Labs, Wilmington, MA) weighing 250-300 g were used for conflict experiments and were kept on a restricted diet of Purina Lab Chow food pellets with water available at all times to maintain body weight at 85% of their free-feeding young adult levels. Rats were housed individually under a 12-hour light-dark cycle with lights on from 0700-1900.
The anti-anxiety (punishment-lessening) and response depressant effects of […] and […] were measured in rats by the conflict test of Geller and Seifter (1960). In this 63-min test, hungry rats perform a lever-press response to obtain a sweetened milk reward. The reinforcement schedule consists of punishment and nonpunishment components, alternating approximately every 15 min. Rats were trained in test chambers (Coulbourn instruments) with a lever mounted in one wall, a small dipper that delivered the 0.1-mL milk reward (1 part Eagle condensed : milk 2 parts water), and a metal grid floor through which the foot-shock punishment was administered. A DEC PDP 11/73 minicomputer running SKED (State Systems) was used for programming and recording.
Rates initially learned to respond on a continuous reinforcement schedule and progressed rapidly to 30-sec, 1-min, and 2-min variable interval (VI) schedules. On the continuous reinforcement schedule, rats received milk reward following every lever press; on the VI schedules, milk rewards were available at infrequent and variable intervals, eventually at an average of once every 2 min. Four 3-min "conflict" periods were then introduced on the unpunished VI baseline; the first started after 3 min of VI performance and the others were alternated between 12-min periods of VI responding. During conflict periods, which were signalled by the presentation of a light and a tone, the continuous reinforcement schedule was again in force and each lever press delivered both a milk reward and a brief ([…]) foot-shock punishment. Shock intensity was 0.2 mA initially, and.was increased daily in increments of 0.02 mA in order to gradually suppress lever pressing to 5 responses or less per conflict period. This training took 4-6 weeks, after which stable low rates of response were observed during conflict periods and stable high rates in the nonpunishment periods. Drug-induced increases in the rate of punished responses were taken as an index of antianxiety activity, while decreases in the rate of unpunished responses were taken as an index of response depression or sedation.

[4] = 50% hpbcd, 10 minutes prior to metrazol (85 mg/kg)

| SMILES | IC50 (GR complex) [nM] | IMAX (GR complex) | % Protected [2, 4] [%] | also measured |
| --- | --- | --- | --- | --- |
| CCO[C@H]1C[C@@]2(C)[C@@H](CC[C@@H]3[C@@H]2CC[C@]2(C)[C@@H](C(C)=O)CC[C@@H]32)C[C@@H]1O [2β-Ethoxy-3α-hydroxy-5α-pregnan-20-one] | – | – | – | Loss-of-Righting Reflex (mice [1]; 20% cremophor, 5 mg/kg): 100 |
| CC(=O)[C@H]1CC[C@H]2[C@@H]3CC[C@H]4C[C@H](O)[C@@H](F)C[C@]4(C)[C@H]3CC[C@]12C [2β-Fluoro-3α-hydroxy-5α-pregnan-20-one] | – | – | – | Loss-of-Righting Reflex (mice [1]; micronizing solution, 5 mg/kg): 100 |
| C#C[C@@]1(O)CC[C@@]2(C)[C@H](CC[C@@H]3[C@@H]2CC[C@]2(C)[C@@H](C(=O)CO)CC[C@@H]32)C1 [3α,21-Dihydroxy-3β-ethynyl-5β-pregnan-20-one] | 216 | 104 | 18.8 | Loss-of-Righting Reflex (mice [1]; 20% cremophor, 10 mg/kg): 100; % Control (mice [3]; 10 mg/kg): 162% |
| CC(=O)C1=CC[C@H]2[C@@H]3CC[C@H]4C[C@](C)(O)CC[C@]4(C)[C@H]3CC[C@]12C [3α-Hydroxy-3β-methyl-5α-pregn-16-en-20-one] | – | – | – | Loss-of-Righting Reflex (mice [1]; micronizing solution, 50 mg/kg): 100 |
| COCCC(=O)[C@H]1CC[C@H]2[C@@H]3CC[C@H]4C[C@](C)(O)CC[C@]4(C)[C@H]3CC[C@]12C [3α-Hydroxy-3β-methyl-21-methoxymethyl-5α-pregnan-20-one] | – | – | – | Loss-of-Righting Reflex (mice [1]; micronizing solution, 20 mg/kg): 100 |
| CC(=O)[C@H]1CC[C@H]2[C@@H]3CC[C@@H]4C[C@@](O)(C(F)(F)F)CC[C@@H]4[C@H]3CC[C@]12C [3α-Hydroxy-3β-trifluoromethyl-5β-19-norpregnan-20-one] | 76 | 100 | 100 | Geller/Seifter (% of control) (rats; sc, 4 mg/kg): 1073.1 % of control; % Control (mice [3]; 10 mg/kg): 173.8% |
| CC(=O)[C@H]1CC[C@H]2[C@@H]3CC[C@@H]4C[C@@](O)(C(F)(F)F)CC[C@]4(C)[C@H]3CC[C@]12C [3α-Hydroxy-3β-trifluoromethyl-5β-pregnan-20-one] | 211 | 98 | 62.5 | Geller/Seifter (% of control) (rats; sc, 4 mg/kg): 663.2 % of control; % Control (mice [3]; 20 mg/kg): 197.6% |
| CC(=O)[C@H]1CC[C@H]2[C@@H]3CC[C@H]4C[C@H](O)CC[C@]4(C)C3=CC[C@]12C [3α-Hydroxy-5α-pregn-9-en-20-one] | – | – | – | Loss-of-Righting Reflex (mice [1]; micronizing solution, 10 mg/kg): 100 |
| COC=C1CCC2C3CCC4CC(O)CCC4C3CCC12C (stereo not drawn) [3α-Hydroxy-17(20)(Z)-methoxytnethylene-19-nor-5α-androstane] | – | – | – | Loss-of-Righting Reflex (mice [1]; micronizing solution, 5 mg/kg): 75 |
| C#C[C@@]1(O)CC[C@@]2(C)[C@@H](CC[C@@H]3[C@@H]2CC[C@]2(C)[C@@H](C(C)=O)CC[C@@H]32)C1 [3α-hydroxy-3β-ethynyl-5α-pregnan-20-one, 3β-Ethynyl-3α-hydroxy-5α-pregnan-20-one] | 53 | 91 | 87.5 | Geller/Seifter (% of control) (rats; sc, 8 mg/kg): 830.2 % of control; % Control (mice [3]; 10 mg/kg): 213% |
| CC(=O)[C@H]1CC[C@H]2[C@@H]3CC[C@H]4C[C@](C)(O)CC[C@]4(C)[C@H]3CC[C@]12C [3α-hydroxy-3β-methyl-5α-pregnan-20-one] | 62 | 97 | 100 | Geller/Seifter (% of control) (rats; sc, 4 mg/kg): 1384.6 % of control; % Control (mice [3]; 5 mg/kg): 165.6% |
| CC(=O)[C@H]1CC[C@H]2[C@@H]3CC[C@@H]4C[C@](C)(O)CC[C@]4(C)[C@H]3CC[C@]12C [3α-hydroxy-3β-methyl-5β-pregnan-20-one] | 37 | 98 | – | % Protected ([2]; micro soln.): 70%; Loss-of-Righting Reflex (mice [1]; micronizing solution, 2.5 mg/kg): 100 |
| CC(=O)[C@H]1CC[C@H]2[C@@H]3CC[C@@H]4C[C@@](O)(C#CCl)CC[C@]4(C)[C@H]3CC[C@]12C [3β-(Chloroethynyl)-3α-hydroxy-5β-prognan-20-one] | – | – | – | Loss-of-Righting Reflex (mice [1]; micronizing solution, 20 mg/kg): 100 |
| CC(=O)[C@H]1CC[C@H]2[C@@H]3CC[C@H]4C[C@@](O)(CF)CC[C@]4(C)[C@H]3CC[C@]12C [3β-Fluoromethyl-3α-hydroxy-5α-pregnan-20-one] | 200 | 77 | 14.3 | Geller/Seifter (% of control) (rats; sc, 8 mg/kg): 1005 % of control; % Control (mice [3]; 20 mg/kg): 150.7% |
| C=C[C@@]1(O)CC[C@@]2(C)[C@@H](CC[C@@H]3[C@@H]2CC[C@]2(C)[C@@H](C(C)=O)CC[C@@H]32)C1 [3β-ethenyl-3α-hydroxy-5α-pregnan-20-one, 3β-Ethenyl-3α-hydroxy-5α-pregnan-20-one] | 113 | 88 | 100 | Geller/Seifter (% of control) (rats; po, 12 mg/kg): 1092.3 % of control; % Control (mice [3]; 5 mg/kg): 154.3% |
| C#C[C@@]1(O)CC[C@@]2(C)[C@H](CC[C@@H]3[C@@H]2CC[C@]2(C)[C@@H](C(C)=O)CC[C@@H]32)C1 [3β-ethynyl-3α-hydroxy-5β-pregnan-20-one, 3β-Ethynyl-3α-hydroxy-5β-pregnan-20-one] | 39 | 101 | 100 | Geller/Seifter (% of control) (rats; sc, 2 mg/kg): 751.1 % of control; Loss-of-Righting Reflex (mice [1]; 10% hpbcd, 30 mg/kg): 100; % Control (mice [3]; 1 mg/kg): 186.6% |
